{"source": "patent US6172042A", "about": "“Synthetic peptides that inhibit IL-6 activity” (Yeda Research and Development Co. LTD, priority 1995, dated 2001)", "test_system": "B9 plasmacytoma-derived cells", "settings": "250 μg/ml", "note": "Where a SMILES comes first, the peptide text is derived from it.", "protocol": "To assay the biological activity of the peptides as inhibitors of IL-6 action against growth of plasmacytoma cells, a hybridoma cell line B9 whose growth is IL-6 dependent (Helle et al, 1988) was used. The B9 cells were cultured in suspension in growth medium RPMI 1640 (Biolabs Ltd., Israel) with 10% heat-inactivated fetal calf serum and 4 U/ml IL-6.\nPrior to assay, the B9 cells were washed and incubated for 5 hours in growth medium but without IL-6. The cells were centrifuged, resuspended in growth medium with 2.5 units/ml (i.e. 7.5 IU/ml) of IL-6 and seeded in a 96-well microplate (Nunc, Denmark) at 50,000 cells in a final volume of 0.2 ml per well. A 25 µl of water solution with appropriate peptide concentration was included in the final volume of each well, i.e. the peptides at concentrations ranging from 62.5 μg/ml to 250 μg/ml (as well as a 0 μg/ml control) were added together with the IL-6. […] The optical absorbance at 530 nm wavelength of each well was measured as specified by the manufacturer. The absorbance is directly proportional to the number of living cells in the well as verified in calibration experiments from 50,000 to 10^6 B9 cells (0.25 OD530 corresponding to 5×10^5 B9 cells under the present experimental conditions). The results were expressed as the difference between final cell density with IL-6 and without IL-6. […]"}
{"smiles": "CSCC[C@H](NC(=O)[C@H](Cc1c[nH]c2ccccc12)NC(=O)[C@@H](NC(=O)[C@@H](NC(=O)[C@H](Cc1ccccc1)NC(=O)[C@@H](NC(=O)[C@H](CCCCN)NC(=O)[C@H](CO)NC(=O)[C@H](CCCNC(=N)N)NC(=O)[C@H](CCC(=O)O)NC(=O)[C@H](C)NC(=O)[C@H](CCCNC(=N)N)NC(=O)[C@H](Cc1ccc(O)cc1)NC(=O)[C@H](CCCNC(=N)N)NC(=O)[C@@H](N)CC(C)C)[C@@H](C)O)[C@@H](C)O)[C@@H](C)O)C(=O)N[C@H](C(=O)O)C(C)C", "note": "[peptide 1063, LRYRAERSKTFTTWMV] (H-LRYRAERSKTFTTWMV-OH)", "values": [{"measurement": "growth inhibition of B9 cells", "result": 99, "unit": "%"}]}
